Experimental findings from patent US20150265644A1, “THERAPEUTIC METHODS AND COMPOSITIONS FOR TREATING DIABETES UTILIZING DITERPENOID COMPOUNDS” (Orient Europharma Co., Ltd., priority 2014, published 2015) are described below.

Assay [1] is described as follows: Plasma insulin level before and after treatment in mice. It is filed as in vivo. The protocol: The 4-week-old male ICR mice were purchased from the Animal Center of the College of Medicine, National Taiwan University (Taipei, Taiwan) with delicate humane care. This animal study was conducted by following the University ethical guidelines and the ‘Guide for the Care and Use of Laboratory Animals’ published by the US National Institutes of Health (NIH publication no. 85-23, revised 1996). The animal experiments were approved by the Institutional Animal Care and Use Committee (IACUC) of the National Taiwan University (IACUC No. 20110073). Animals were housed in a room at the constant temperature, 22±1° C., with 12 hours light and dark cycles.
(§1) After three days of acclimatization, the mice had free access to a standard rodent chow (normal mice), a standard rodent chow after single 250 mgkg^−1 streptozotocin (STZ) intraperitoneal injection (TIDM mice), and a fat-rich chow diet and fructose-sweetened water (T2DM mice) for 4 weeks. The induction of Type 1 DM was assessed and confirmed when the mice had plasma glucose levels ≧350 mgdL^−1, accompanied with polyuria, hyperphagia and decreased body weight. The induction Type 2 DM in the mice was assessed by measuring fasting plasma glucose levels and confirmed when plasma glucose level was ≧150 mgdL^−1 after the 4-week induction. The animals were assigned randomly into three groups, with seven animals in each group. In group I, the mice were treated with vehicle, 2% DMSO in normal saline, as the negative control. In group II, the mice were intraperitoneally treated with borapetoside A (0.1-10 mgkg^−1). In […], the mice received intraperitoneally metformin (300 mgkg^−1; Sigma Chemical Co., St. Louis, Mo., U.S.A.) or insulin (0.5 IUkg^−1; Insulin Actrapid® HM; Novo Nordisk, Denmark). In the acute study, mice under anesthesia received a single intraperitoneal administration of borapetoside A, negative control, or positive control. In the subacute study, mice received intraperitoneal administrations of borapetoside A, vehicle, or insulin twice a day for seven days.
(§2) Blood samples were collected from the orbital vascular plexus of the mice under anesthesia. Blood samples were then centrifuged at 13000 rpm for 5 min, and the plasma samples were collected and kept on ice prior to the assay. The plasma glucose concentration was measured by Glucose Kit Reagent (Biosystems S.A., Barcelona, Spain) following the manufacturer's instructions, and the insulin levels were estimated using mouse insulin ELISA kit (Mercodia AB, Uppsala, Sweden).

Assay [2] is described as follows: Intraperitoneal glucose tolerance test. It is filed as in vivo, mice. The settings on record: metformin-treated group, compared to the vehicle group, normal and type 2 DM mice. The protocol:
as §1, §2
The mice were maintained under anesthesia throughout the procedure. Glucose (2.0 gkg^−1) was administered intraperitoneally. Blood samples were collected from the orbital vascular plexus at 0, 30, 60, 120 min. The concentrations of the plasma glucose were measured, and the values of AUC were calculated accordingly.

The test system of another assay is IL-6-treated C2C12 cells. Description: Glycogen content assay in IL-6-induced insulin resistant C2C12 cells. It is filed as cell-based. The settings on record: IL-6-treated C2C12, 1 nM insulin, 30 minutes. The protocol: The C2C12 skeletal muscle cells were cultured in Dulbecco's modified Eagle's medium (DMEM; Gibco/Invitrogen, Carlsbad, Calif.), and the human hepatocellular carcinoma cell line, Hl-ep3B, was cultured in Roswell Park Memorial Institute medium 1640 (RPMI 1640 medium; Gibco/Invitrogen, Carlsbad, Calif.). Cells were cultured at 37° C. in the humidified incubator supplied with 5% CO2. Culture mediums were supplemented with 4.5 mgmL^−1 glucose, penicillin 100 IUmL^−1, streptomycin 100 μgmL^−1 and 10% fetal bovine serum (Gibco/Invitrogen, Carlsbad, Calif.). Only C2C12 cells were then switched to 2% horse serum for 3 days after reaching the 70% confluence. Myotubes formation was achieved after 4 days of incubation, and the cells were used for subsequent experiments. Culture mediums were replaced by serum free DMEM or RPMI for 24 h before experiments (see e.g., procedure described in Sultan et al., 2006).
C2C12 and Hep3B cells were treated with 1 nM insulin, 100 μM metformin, and the assigned concentration of borapetoside A for 30 minutes. To develop the insulin resistance state of cells, C2C12 cells were incubated with IL-6 at 20 ngmL^−1 for 1 hour. Later, the cells were treated with 1 nM insulin, 100 μM metformin, and the assigned concentration of borapetoside A for 30 minutes. After the assigned treatment, cells were washed twice with phosphate buffered saline (PBS). Glycogen content was measured as previously described, with some modifications (see e.g., Savage et al., 2008). The protein concentrations of the cell lysates were determined by using Pierce BCA Protein Assay Kit (Thermo-Scientific, Rockford, Ill.). The glycogen content of each sample was normalized by total protein.

A further assay deals with soleus muscle. The assay can be described thus: Glycogen content in soleus muscle in vivo. The note with it: mice with type 2 DM, insulin 0.5 IUkg^−1 i.p. Details: species or system mice. The protocol: (§3) The mice were injected with borapetoside A (10 mgkg^−1, interperitoneal) for 60 minutes or insulin (0.5 IUkg^−1, interperitoneal) for 30 minutes. After the treatment, the anesthetic mice were sacrificed by cervical dislocation to collect the soleus muscle and liver. About 40 mg of each sample was dissolved in 1 mol/L KOH at 75° C. for 30 min. The dissolved homogenate was neutralized by glacial acetic acid and then incubated overnight in acetate buffer (0.3 mol/L sodium acetate, pH 4.8) containing amyloglucosidase (Sigma, St. Louis, Mo.). The mixture was then neutralized with 1 mol/L NaOH to stop the reaction. The glycogen contents in the tissue samples were determined as μg of glucose per mg of tissue (wet weight).

Another assay relates to liver. Description: Glycogen content in liver in vivo. Details: species or system mice. The note with it: mice with type 2 DM, insulin 0.5 IUkg^−1 i.p. The protocol: as §3

Consider `CN(C)C(=N)N=C(N)N` [Metformin, metformin, reference compound], for which the Plasma insulin in assay [1] (T1DM mice, metformin 300 mgkg^−1, after-treatment) was found to be 22.7 ± 0.3 pmol/L; in assay [1] (T1DM mice, metformin 300 mgkg^−1, before-treatment), 22.4 ± 0.4 pmol/L; in assay [1] (T2DM mice, metformin 300 mgkg^−1, after-treatment) it was 182.0 ± 27.7 pmol/L; in assay [1] (T2DM mice, metformin 300 mgkg^−1, before-treatment), 148.1 ± 15.2 pmol/L; in assay [1] (normal mice, metformin 300 mgkg^−1, after-treatment), 72 ± 3.1 pmol/L; in assay [1] (normal mice, metformin 300 mgkg^−1, before-treatment), 66.6 ± 1.3 pmol/L. The “increase of plasma glucose level at 30 min” value in assay [2] is on record as “significantly suppressed”.
On to “insulin: short-acting insulin, Insulin Actrapid HM (Novo Nordisk), positive control 0.5 IUkg^−1 [reference compound]”, for which the glycogen content entry with IL-6-treated C2C12 cells is on record as “not increased”. The “glycogen synthesis in soleus muscle” value in the assay on soleus muscle is “failed to enhance”. In the assay on liver, the “glycogen synthesis in liver” value is “failed to enhance”.
